Measured values: patent publication US20250020635A1, “ASSAY METHODS AND USES THEREOF FOR SCREENING ALZHEIMER'S DISEASE TREATMENT COMPOUNDS” (priority 2023, published 2025)

Test system: HMC3 cells
Assay: Microglial phagocytosis/cell health high-content assay, HMC3 cells
Assay type: cell-based
Conditions: 60 μM, 48 hrs, compared to control
Procedure: The assay introduced here is a simplified cellular imaging assay without any fixation and washing steps, while producing multiparameter measurements with high capacity using a 384-well plate format. The assay procedures include plating cells on day 1, incubating cell plates overnight before treating cells on day 2, adding pHrodo™-myelin/membrane debris to cell plates on day 3, and 20 hr later, staining cell nuclei with Hoechst-33342 for 30 min before performing high-content imaging on day 4. Three selected parameters are measured from cells: 1) mean total fluorescence intensity per cell of pHrodo™-myelin/membrane debris in phagocytosis vesicles to quantify phagocytosis; 2) cell counts per well to quantify treatment effects on proliferation and cell death; and 3) average nuclear intensity to quantify treatment-induced nuclear changes such as in apoptosis. The assay has been used on HMC3 cells (an immortalized human microglial cell line), BV2 cells (an immortalized mouse microglial cell line), and primary microglia isolated from mouse brains. For initial assay attempts, we recommend using HMC3 cells available from the ATCC.
All collected raw data are normalized to the untreated control with following formula: % of control=100×(X−Min)/(Max−Min). Factors in the formula are: X is raw data from a treated well, Max is an average measurement from pHrodo™-myelin seeded but untreated wells, and Min is an average measurement from no pHrodo™-myelin untreated wells. Normalized data are used for curve fitting that is done with the variable slope (four parameters) using the Prism software.
To ensure that the measurements reflect the steady state of compound treatment effects and cell health, the assay was set with a total compound treatment time of 48 hr, including pHrodo™-myelin/membrane debris seeding performed 20-24 hr after compound addition. […] Among many available quantitative measurements from the image analysis, we selected three parameters for the assay:
1) The mean total intensity of phagocytosis vesicles/cell—to measure phagocytosis. There are multiple parameters generated from the image analysis, including phagocytosis vesicle area, number, and various fluorescence intensity measurements. Comparing these parameters, the total fluorescence intensity of vesicles/cell is the most sensitive one and was chosen for quantifying phagocytosis.
2) The total cell counts—to measure overall cell viability, which is affected by proliferation and cell death. We chose to take 4 images/well (with the 10× objective lens) that cover about 50% of the total area of a well in a 384-well plate to represent cell count of the well.
3) The average nuclear intensity—to measure drug-induced apoptosis, with high signal indicating nuclear condescension (a sign of early apoptosis) and low signal indicating DNA degradation (a sign of later apoptosis, when activated caspases digest DNA).
A phenotypic high-content imaging assay with simultaneous measurements of phagocytosis, cell number, and nuclear intensity was used to assess both cellular pharmacology and cell health. Model cell lines BV2 (immortalized mouse microglia, a gift from Dr. Michelle Block's laboratory at IUSM) and HMC3 (immortalized human microglia, obtained from ATCC, CRL-3304) were used to provide adequate throughput. Cells were cultured in DMEM GlutaMax media (ThermoFisher) containing 10% FBS and Pen-Strep in a 37° C. 5% CO2 incubator, plated in Corning Falcon 384 well Optilux Black and clear bottom plates: 400 cells/45 μl/well (BV2 cells), 600 cells/45 μl/well (HMC3 cells) and 2000 cell/45 μl/well (primary cells), and treated with 10× serially diluted compounds (60 μM-3 nM) for 48 hrs at 37° C. […]

First: Cc1cc(C)c(S(=O)(=O)Nc2ccccc2C(F)(F)F)c(C)c1 [Compound 2, o-3M3FBS, reference compound]
Second: Cc1cc(C)c(S(=O)(=O)Nc2cccc(C(F)(F)F)c2)c(C)c1 [Compound 1, 2,4,6-trimethyl-N-(meta-3-trifluoromethyl-phenyl)-benzenesulfonamide, reference compound]
The “Ave. % Cell Count @ 60 uM HMC3 cells” value of the first is higher: 103% for the first, 3% for the second.

Going from `O=S(=O)(Nc1ccc(Br)cc1F)c1cccs1` [Compound 8] to `Cc1cc(C)c(S(=O)(=O)NC2CCCNC2)c(C)c1` (centres unmarked) [Compound 11], the “Ave. % Cell Count @ 60 uM HMC3 cells” value falls from 88% to 65%.

Going from `Cc1cc(C)c(S(=O)(=O)Nc2ccccc2C(F)(F)F)c(C)c1` [Compound 2, o-3M3FBS, reference compound] to `Cc1cc(C)c(S(=O)(=O)Nc2cccc(C(F)(F)F)c2)c(C)c1` [Compound 1, 2,4,6-trimethyl-N-(meta-3-trifluoromethyl-phenyl)-benzenesulfonamide, reference compound], the “Ave. % Phagocytosis @ 60 uM HMC3 cells” value falls from 99% to 0%.

Going from `O=S(=O)(Nc1ccc(Br)cc1F)c1cccs1` [Compound 8] to `Cc1cc(C)c(S(=O)(=O)NC2CCCNC2)c(C)c1` (centres unmarked) [Compound 11], the “Ave. % Phagocytosis @ 60 uM HMC3 cells” value rises from 104% to 146%.
